Some test systems named below: CAKI-1 renal; CCRF-CEM leukemia; HCC-2998 colon; HOP-62 NSCLC; HT29 colon; NCI-H522 lung; PC-3 prostate; SF-295 CNS; SN12C renal; SW-620 colon.
Assay in all cases: NCI-60 cell line screen, 48 h

SMILES strings stand for the structures. Several values for one entry are separate records, joined by “and”; a condition that tells them apart may be missing. Equal values may be shown once.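 Each compound was tested at five concentrations against cells in 96-well plates for 48 hours. Abbreviation: GI50, concentration required for 50% inhibition of growth. TGI denotes the concentration required for complete inhibition of growth.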

Consider `Nc1ncn([C@@H]2S[C@H](CO)[C@@H](O)[C@@H]2F)c(=O)n1`, for which the GI50 in the test with CAKI-1 renal is 0.322 µM; with CCRF-CEM leukemia it was 0.0399 µM; with HCC-2998 colon, 1.84 µM; with HOP-62 NSCLC, 0.951 µM; in the test with HT29 colon it was 2.45 µM; with NCI-H522 lung it was over 100 µM. The GI50 with SF-295 CNS was 17.7 µM; with SN12C renal, 0.364 µM; with SW-620 colon it was 1.38 µM. For the same molecule, the TGI with CAKI-1 renal, in the test on CCRF-CEM leukemia, with HCC-2998 colon, with HOP-62 NSCLC, in the test on HT29 colon and in the test with NCI-H522 lung was over 100 µM each time. The TGI with PC-3 prostate, with SF-295 CNS, with SN12C renal and in the test with SW-620 colon was over 100 µM each time.
Regarding `Cn1ncc(-c2ccc3c(=O)[nH]nc(CN)c3c2)c1-c1c(F)c(Cl)cc(OC2CC2)c1C#N`, the GI50 in the test with CAKI-1 renal was 11.6 µM and 11.2 µM; in the test with CCRF-CEM leukemia, 22.3 µM and 33.4 µM; in the test with HCC-2998 colon, 14.2 µM and 14.5 µM; in the test on HOP-62 NSCLC, 16.1 µM and 13.4 µM; in the test on HT29 colon, 11.6 µM and 10.3 µM; with NCI-H522 lung, 12.7 µM and 9.22 µM. Besides, the GI50 with PC-3 prostate was 19.9 µM and 17.1 µM; in the test with SF-295 CNS, 14.3 µM and 13.3 µM; in the test with SN12C renal, 13.5 µM and 11.8 µM; in the test with SW-620 colon, 13.8 µM and 12.6 µM. The TGI was 24.1 µM and 23.6 µM with CAKI-1 renal; over 100 µM in the test with CCRF-CEM leukemia; 28 µM and 28.3 µM in the test on HCC-2998 colon; 33.7 µM and 27.8 µM in the test with HOP-62 NSCLC; 29.6 µM and 22.7 µM in the test with HT29 colon; 27.4 µM and 23.1 µM in the test with NCI-H522 lung. Also, the TGI with PC-3 prostate is 66.8 µM and 48.2 µM; with SF-295 CNS it was 28.4 µM and 27.2 µM; with SN12C renal it was 28.7 µM and 25.3 µM; in the test with SW-620 colon, 29.4 µM and 27.3 µM.
`FC(F)(F)c1cccc(-c2nc3nc(Cl)c(Cl)nc3[nH]2)c1`: the TGI in the test with CAKI-1 renal is 11 µM; in the test on CCRF-CEM leukemia it was 7.99 µM; in the test with HCC-2998 colon it was 8.04 µM; in the test on HOP-62 NSCLC, 23.5 µM; with HT29 colon it was 9.2 µM; in the test on NCI-H522 lung it was 4.11 µM. For the same molecule, the TGI is 9.37 µM in the test with PC-3 prostate, over 100 µM with SF-295 CNS, over 35.9 µM with SN12C renal and over 42.3 µM in the test on SW-620 colon.
Regarding `CCc1c2c(nc3ccc(OCc4ccc(B(O)O)cc4)cc13)-c1cc3c(c(=O)n1C2)COC(=O)[C@]3(O)CC`, the GI50 is under 0.0143 µM in the test on CAKI-1 renal; under 0.01 µM with CCRF-CEM leukemia; 0.398 µM in the test with HCC-2998 colon; under 0.01 µM with HOP-62 NSCLC; 0.286 µM with HT29 colon; under 0.0183 µM in the test on NCI-H522 lung. The GI50 was 0.164 µM in the test on PC-3 prostate, under 0.01 µM in the test on SF-295 CNS, under 0.013 µM with SN12C renal and 0.0247 µM in the test on SW-620 colon. Moreover, the TGI with CAKI-1 renal is 0.361 µM; in the test with CCRF-CEM leukemia, over 100 µM; with HCC-2998 colon, over 66.1 µM; with HT29 colon it was over 37.7 µM; in the test on PC-3 prostate, over 75.5 µM; in the test on SF-295 CNS it was 7.53 µM. Further, the TGI with SN12C renal is over 100 µM; in the test with SW-620 colon, over 78 µM.
Consider `CN(C)c1cc2ccccc2oc1=O`, for which the TGI in the test with CAKI-1 renal, in the test on CCRF-CEM leukemia, in the test with HCC-2998 colon, with HOP-62 NSCLC, with HT29 colon and in the test on NCI-H522 lung was over 100 µM in each case. Also, the TGI with PC-3 prostate, in the test on SF-295 CNS, in the test with SN12C renal and with SW-620 colon was over 100 µM throughout.
For the molecule `c1ccc(NN(Cc2cnccn2)c2ccccc2)cc1`, the TGI was over 100 µM in the test with CAKI-1 renal; 51.2 µM in the test on CCRF-CEM leukemia; over 100 µM with HOP-62 NSCLC; over 100 µM in the test with HT29 colon; over 100 µM with NCI-H522 lung; over 100 µM in the test with PC-3 prostate. Further, the TGI in the test with SF-295 CNS, in the test with SN12C renal and with SW-620 colon was over 100 µM throughout.
Take `Nc1nc2ccc(-c3nc4ccc5[nH]ncc5c4c4c3CCC4)cc2s1`: the GI50 in the test on CAKI-1 renal is 0.315 µM; with CCRF-CEM leukemia, 0.225 µM; in the test on HCC-2998 colon it was 1.47 µM; with HOP-62 NSCLC, 0.415 µM; with HT29 colon it was 0.191 µM; in the test with NCI-H522 lung, 0.253 µM. Also, the GI50 in the test on PC-3 prostate was 0.308 µM; in the test on SF-295 CNS, 0.234 µM; in the test with SN12C renal it was 0.383 µM; in the test with SW-620 colon, 0.186 µM. For the same molecule, the TGI with CAKI-1 renal was 5.51 µM; with CCRF-CEM leukemia, 50 µM; with HCC-2998 colon, 9.11 µM; in the test on HOP-62 NSCLC, 13.6 µM; in the test on HT29 colon, 19.8 µM; in the test on NCI-H522 lung it was 2.52 µM. Also, the TGI with PC-3 prostate was 14 µM; in the test on SF-295 CNS, 7.95 µM; with SN12C renal it was 8.79 µM; in the test on SW-620 colon it was 7.05 µM.
For `O=S(=O)(/N=c1\scc(-c2ccccc2)n1-c1ccccc1)c1ccc(N2N=C3c4ccccc4CC3C2c2ccc(Cl)cc2)cc1` (configuration not stated), the GI50 in the test on CAKI-1 renal was 46.4 µM; with CCRF-CEM leukemia, 18.6 µM; with HOP-62 NSCLC, 93.9 µM; in the test with HT29 colon, 44 µM; with NCI-H522 lung, 22.7 µM; with PC-3 prostate, 19.1 µM. The GI50 in the test on SF-295 CNS is 40.7 µM; in the test on SN12C renal, 50.8 µM; in the test with SW-620 colon it was 35 µM. The TGI is over 100 µM with CAKI-1 renal; 59.3 µM in the test on CCRF-CEM leukemia; over 100 µM with HOP-62 NSCLC; over 100 µM in the test on HT29 colon; 82.3 µM in the test with NCI-H522 lung; over 100 µM in the test with PC-3 prostate. Also, the TGI in the test with SF-295 CNS, in the test with SN12C renal and in the test with SW-620 colon was over 100 µM each time.
For the molecule `CC(=O)Nc1ccc(-c2cc(C(=O)O)c3cc4ccccc4cc3n2)cc1`, the TGI in the test on CAKI-1 renal, with HOP-62 NSCLC, in the test on HT29 colon, in the test on NCI-H522 lung, with PC-3 prostate and in the test with SF-295 CNS was over 100 µM each time. For the same molecule, the TGI with SN12C renal and with SW-620 colon was over 100 µM throughout.

Source of the values: PubChem BioAssay (NCI).
